The record followed here is patent publication US20240150334A1, “HSD17B13 INHIBITORS AND/OR DEGRADERS” (Pfizer Inc., priority 2022, published 2024).

The target in one assay is HSD17B13 enzyme (Homo sapiens (Human), UniProt Q7Z5P4). In words: hHSD17B13 IC50 Assay (FAC beta-estradiol), purified protein enzyme activity assay with NAD(P)H-Glo luciferase readout. Type of assay: biochemical. The note with it: geometric mean, 12 μM FAC beta-estradiol, 500 μM NAD+, read-out: hHSD17B13_IC50 GMean IC50. In short, it runs like this: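 Purified human HSD17B13 (30 nM FAC) incubated with compound, beta-estradiol and NAD+ for 2 h at room temperature in the dark. NADH formation was detected by NAD(P)H-Glo luminescence after 1 h. RLUs normalized to uninhibited enzyme (vehicle) as zero effect.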
HSD17B13 enzyme, sequence (Q7Z5P4 20-300): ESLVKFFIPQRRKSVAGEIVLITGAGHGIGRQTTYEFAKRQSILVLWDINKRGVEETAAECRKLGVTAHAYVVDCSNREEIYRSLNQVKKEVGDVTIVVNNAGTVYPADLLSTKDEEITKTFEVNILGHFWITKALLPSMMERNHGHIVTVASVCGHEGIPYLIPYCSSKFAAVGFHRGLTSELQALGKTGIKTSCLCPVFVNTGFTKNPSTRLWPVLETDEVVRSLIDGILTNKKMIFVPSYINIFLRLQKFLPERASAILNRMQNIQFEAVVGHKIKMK

The next assay deals with wild type human HSD17B13 (Homo sapiens (Human), UniProt Q7Z5P4). The assay can be described thus: HEK_Beta-Est LCMS_IC50_Tekcel, whole-cell HEK-HSD17B13 inhibition assay, estrone production by LCMS. Format: cell-based. Conditions: geometric mean, HEK cells stably expressing wild type human HSD17B13, 25 μM FAC beta-estradiol, read-out: HEK_Beta-Est LCMS_IC50—Tekcel GMean IC50. The essentials:
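Readout was LCMS quantitation of estrone made from beta-estradiol with NAD+ as cofactor. Whole HEK-HSD17B13 cells were given compound for 1 hour, then the reaction for 2 hours, both at 37° C. Product area ratios were normalized to vehicle controls as zero percent effect.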

Each structure is given as a SMILES string. Structures can show the parent of a compound that is named as a salt.

wild type human HSD17B13, sequence (Q7Z5P4 20-300): as above

In general, IC50 refers to the midpoint of a concentration-inhibition curve. Consider `O=C(NC[C@]12CC[C@](c3nc(-c4ccc(C(F)(F)F)nc4)no3)(CC1)CC2)c1cc(F)c(O)c(F)c1F` [Example 196, 2,3,5-trifluoro-4-hydroxy-N-[(4-{3-[6-(trifluoromethyl)pyridin-3-yl]-1,2,4-oxadiazol-5-yl}bicyclo[2.2.2]octan-1-yl)methyl]benzamide], for which the IC50 at HSD17B13 enzyme came out at 12 nM; on wild type human HSD17B13, 340 nM.
Taken in the same sequence, the figures for `COc1cccc(-c2ccc3cn([C@H]4CC[C@H](CNC(=O)c5cc(F)c(O)c(F)c5)CC4)nc3c2)c1` [Example 64, 3,5-difluoro-4-hydroxy-N-({(1r,4r)-4-[6-(3-methoxyphenyl)-2H-indazol-2-yl]cyclohexyl}methyl) benzamide] were 5.6 nM and 350 nM.
As for `O=C(NC[C@H]1CC[C@H](n2cc3ccc(-c4cnn(C5CCOC5)c4)cc3n2)CC1)c1cc(F)c(O)c(F)c1` (some centres unmarked) [Example 38, 3,5-difluoro-4-hydroxy-N-{[(1r,4r)-4-{6-[1-(oxolan-3-yl)-1H-pyrazol-4-yl]-2H-indazol-2-yl}cyclohexyl]methyl} benzamide], the IC50 on HSD17B13 enzyme came out at 4.6 nM; at wild type human HSD17B13, 150 nM.
On to `O=C(NC[C@H]1CC[C@H](n2cc3ccccc3n2)CC1)c1cc(F)c(O)c(F)c1` [Example 22, 3,5-difluoro-4-hydroxy-N-{[(1r,4r)-4-(2H-indazol-2-yl)cyclohexyl]methyl} benzamide], for which the half-maximal inhibitory concentration (IC50) was 20 nM on HSD17B13 enzyme and 390 nM at wild type human HSD17B13.
On to `O=C(NC[C@]12CC[C@](c3nc(-c4cnc(C(F)(F)F)cn4)no3)(CC1)CC2)c1cc(F)c(O)c(F)c1F` [Example 178, 2,3,5-trifluoro-4-hydroxy-N-[(4-{3-[5-(trifluoromethyl)pyrazin-2-yl]-1,2,4-oxadiazol-5-yl}bicyclo[2.2.2]octan-1-yl)methyl]benzamide], for which the IC50 at HSD17B13 enzyme stood at 7.9 nM; on wild type human HSD17B13 it was 150 nM.
Regarding `O=C(NC[C@H]1CC[C@H](n2cc3ccc(-c4cccnc4)cc3n2)CC1)c1cc(F)c(O)c(F)c1` [Example 72, 3,5-difluoro-4-hydroxy-N-({(1r,4r)-4-[6-(pyridin-3-yl)-2H-indazol-2-yl]cyclohexyl}methyl) benzamide], the IC50 amounted to 7.8 nM at HSD17B13 enzyme and 170 nM at wild type human HSD17B13.
The matching figures for `O=C(NC[C@]12CC[C@](c3nc(-c4ccc(C(F)(F)F)nn4)no3)(CC1)CC2)c1cc(F)c(O)c(F)c1` [Example 143, 3,5-difluoro-4-hydroxy-[(4-{3-[6-(trifluoromethyl)pyridazin-3-yl]-1,2,4-oxadiazol-5-yl}bicyclo[2.2.2]octan-1-yl)methyl]benzamide]: 13 nM and 180 nM.
Taken in the same sequence, the figures for `O=C(NC[C@]12CC[C@](n3cc4ccccc4n3)(CC1)CC2)c1cc(F)c(O)c(F)c1` [Example 202, 3,5-difluoro-4-hydroxy-N-{[4-(2H-indazol-2-yl)bicyclo [2.2.2]octan-1-yl]methyl}benzamide] were 49 nM and 220 nM.
The matching figures for `O=C(NC[C@H]1CC[C@H](n2cc3cnc(-c4ccncc4)cc3n2)CC1)c1cc(F)c(O)c(F)c1` [Example 188, 3,5-difluoro-4-hydroxy-N-({(1r,4r)-4-[6-(pyridin-4-yl)-2H-pyrazolo[4,3-c]pyridin-2-yl]cyclohexyl}methyl) benzamide]: 11 nM and 240 nM.
For `COc1cc2cn([C@H]3CC[C@H](CNC(=O)c4cc(F)c(O)c(F)c4)CC3)nc2cn1` [Example 6, 3,5-Difluoro-4-hydroxy-N-{[(1r,4r)-4-(5-methoxy-2H-pyrazolo[3,4-c]pyridin-2-yl)cyclohexyl]methyl}benzamide], the half-maximal inhibitory concentration (IC50) came to 21 nM on HSD17B13 enzyme and 440 nM at wild type human HSD17B13.
Taken in the same sequence, the figures for `Cn1cc(-c2ccc3cn([C@H]4CC[C@H](CNC(=O)c5cc(F)c(O)c(F)c5F)CC4)nc3c2)cn1` [Example 5, 2,3,5-Trifluoro-4-hydroxy-N-({(1r,4r)-4-[6-(1-methyl-1H-pyrazol-4-yl)-2H-indazol-2-yl]cyclohexyl}methyl)benzamide, trifluoroacetate salt] were more than 2500 nM and 72 nM.
In the case of `O=C(NC[C@H]1CC[C@H](c2noc(-c3ccccc3)n2)CC1)c1cc(F)c(O)c(F)c1` [Example 138, 3,5-difluoro-4-hydroxy-N-{[(1r,4r)-4-(5-phenyl-1,2,4-oxadiazol-3-yl)cyclohexyl]methyl}benzamide], the concentration for half-maximal inhibition (IC50) at HSD17B13 enzyme worked out at 16 nM; at wild type human HSD17B13, 200 nM.
`O=C(NC[C@H]1CC[C@H](n2cc3cc(Cl)ccc3n2)CC1)c1cc(F)c(O)cc1F` [Example 145, N-{[(1r,4r)-4-(5-chloro-2H-indazol-2-yl)cyclohexyl]methyl}-2,5-difluoro-4-hydroxybenzamide, trifluoroacetate salt]: the figures for the IC50 at HSD17B13 enzyme and on wild type human HSD17B13 were 18 nM and 260 nM, respectively.
